Target: Poly [ADP-ribose] polymerase 1 (Homo sapiens, UniProt P09874)
Experiment: PARP Enzyme Assay: The PARP enzyme assay is set up on ice in a volume of 100 microliters consisting of 100 mM Tris-HCl (pH 8.0), 1 mM MgCl2, 28 mM KCl, 28 mM NaCl, 0.1 mg/ml of DNase I activated herring sperm DNA (Sigma, Mo.), 3.0 micromolar [3H]nicotinamide adenine dinucleotide (470 mci/mmole), 7 micrograms/ml PARP enzyme, and various concentrations of the compounds to be tested. The reaction is initiated by incubating the mixture at 25° C. After 15 minutes of incubation, the reaction is terminated by adding 500 microliters of ice cold 20% (w/v) trichloroacetic acid. The precipitate formed is transferred onto a glass fiber filter (Packard Unifilter-GF/B) and washed three times with ethanol. After the filter is dried, the radioactivity is determined by scintillation counting.

Sequence of Poly [ADP-ribose] polymerase 1 (P09874 whole entry): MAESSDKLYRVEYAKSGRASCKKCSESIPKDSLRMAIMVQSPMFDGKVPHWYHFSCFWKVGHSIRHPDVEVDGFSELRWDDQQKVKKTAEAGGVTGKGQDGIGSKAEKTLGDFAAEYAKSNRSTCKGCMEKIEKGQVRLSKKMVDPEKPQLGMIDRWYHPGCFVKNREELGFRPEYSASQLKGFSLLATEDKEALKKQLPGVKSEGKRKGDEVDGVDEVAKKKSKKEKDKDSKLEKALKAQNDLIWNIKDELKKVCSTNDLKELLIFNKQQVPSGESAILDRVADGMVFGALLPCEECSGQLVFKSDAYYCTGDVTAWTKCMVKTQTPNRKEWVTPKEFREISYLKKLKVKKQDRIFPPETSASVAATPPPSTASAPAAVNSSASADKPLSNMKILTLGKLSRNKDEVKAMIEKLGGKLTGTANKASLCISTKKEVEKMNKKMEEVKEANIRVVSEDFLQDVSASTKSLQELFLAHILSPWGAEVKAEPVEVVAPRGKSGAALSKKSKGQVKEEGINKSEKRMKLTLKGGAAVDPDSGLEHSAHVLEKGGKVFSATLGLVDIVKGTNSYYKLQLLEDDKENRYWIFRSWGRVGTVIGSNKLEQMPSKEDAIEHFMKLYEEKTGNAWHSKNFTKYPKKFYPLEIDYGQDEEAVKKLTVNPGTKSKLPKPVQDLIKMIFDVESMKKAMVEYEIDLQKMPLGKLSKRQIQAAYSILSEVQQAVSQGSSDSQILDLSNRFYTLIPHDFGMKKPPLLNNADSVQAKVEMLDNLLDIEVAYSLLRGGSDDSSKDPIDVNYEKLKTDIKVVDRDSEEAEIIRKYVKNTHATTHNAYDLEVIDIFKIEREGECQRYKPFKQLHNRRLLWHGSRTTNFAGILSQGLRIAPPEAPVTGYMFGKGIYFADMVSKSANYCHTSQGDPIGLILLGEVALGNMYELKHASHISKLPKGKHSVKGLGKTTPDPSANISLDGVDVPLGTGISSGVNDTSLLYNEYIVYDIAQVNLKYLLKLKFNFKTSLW

IC50: 500 nM
Compound: CCN(CC)CCN(CC)Cc1ccc2c(c1)-c1n[nH]c(=O)c3cccc(c13)O2

Source: ChEMBL document CHEMBL3639262, “Diazabenzo[de] anthracen-3-one compounds and methods for inhibiting PARP” (2013)
